Columns and labels:
Assay type in all cases: functional
Aphis craccivora [1] = assay: Insecticidal activity against Aphis craccivora (cowpea aphid) in compound treated horsebean plant leaves assessed as mortality at 500 mg/L measured after 24 hr by leaf-dip method
Aphis craccivora [2] = assay: Insecticidal activity against Aphis craccivora (cowpea aphid) in compound treated horsebean plant leaves assessed as mortality measured after 24 hr by leaf-dip method
Mythimna separata [3] = assay: Insecticidal activity against second-instar larvae Mythimna separata (Oriental armyworm) in compound treated corn leaves assessed as mortality at 500 mg/L measured after 48 hr
Mythimna separata [4] = assay: Insecticidal activity against second-instar larvae Mythimna separata (Oriental armyworm) in compound treated corn leaves assessed as mortality measured after 48 hr
Nilaparvata lugens [5] = assay: Insecticidal activity against compound sensitive second-instar larvae Nilaparvata lugens (brown planthopper) in compound rice seedlings assessed as toxicity at 25 degC measured after 6 days relative to control
Nilaparvata lugens [6] = assay: Insecticidal activity against compound resistant second-instar larvae Nilaparvata lugens (brown planthopper) in compound rice seedlings assessed as mortality at 25 degC measured after 6 days; conditions: 144 h
Nilaparvata lugens [7] = assay: Insecticidal activity against compound sensitive second-instar larvae Nilaparvata lugens (brown planthopper) in compound rice seedlings assessed as mortality at 25 degC measured after 6 days; conditions: 144 h
Nilaparvata lugens [8] = assay: Insecticidal activity against compound resistant second-instar larvae Nilaparvata lugens (brown planthopper) in compound rice seedlings assessed as toxicity at 25 degC measured after 6 days relative to control

Compound | mortality at 500 µg/mL (Aphis craccivora [1]) [%] | LC50 (Aphis craccivora [2]) [µM] | mortality at 500 µg/mL (Mythimna separata [3]) [%] | LC50 (Mythimna separata [4]) [µM] | Ratio (Nilaparvata lugens [5]) | LC50 (Nilaparvata lugens [6]) [µM] | LC50 (Nilaparvata lugens [7]) [µM] | Ratio (Nilaparvata lugens [8])
Cc1ccc([C@@H]2C([N+](=O)[O-])=C3N(Cc4ccc(Cl)nc4)CCN3[C@H](c3ccc(C)s3)[C@@]2(C2=NCCN2Cc2ccc(Cl)nc2)[N+](=O)[O-])s1 | 100 | 3.79 | 100 | 27.9 |  |  |  | 
O=[N+]([O-])C1=C2N(Cc3ccc(Cl)nc3)CCN2[C@H](c2cccs2)[C@@](C2=NCCN2Cc2ccc(Cl)nc2)([N+](=O)[O-])[C@@H]1c1cccs1 | 100 | 46.8 | 100 | 44.1 |  |  |  | 
Cc1ccc([C@H]2C([N+](=O)[O-])=C3N(Cc4ccc(Cl)nc4)CCN3[C@H](c3ccc(C)s3)[C@@]2(C2=NCCN2Cc2ccc(Cl)nc2)[N+](=O)[O-])s1 | 100 |  | 0 |  |  |  |  | 
O=[N+]([O-])C1=C2N(Cc3ccc(Cl)nc3)CCN2[C@H](c2cccs2)[C@@](C2=NCCN2Cc2ccc(Cl)nc2)([N+](=O)[O-])[C@H]1c1cccs1 | 85.6 |  | 0 |  |  |  |  | 
O=[N+]([O-])/N=C1\NCCN1Cc1ccc(Cl)nc1 [IMIDACLOPRID] | 100 | 35 | 100 | 125 | 1 | 38.8 | 1.73 | 1
Cc1ccc([C@@H]2C([N+](=O)[O-])=C3N(Cc4ccc(Cl)nc4)CCN3[C@H](c3ccc(C)o3)[C@@]2(C2=NCCN2Cc2ccc(Cl)nc2)[N+](=O)[O-])o1 | 100 | 1.31 | 100 | 43 |  |  |  | 
O=[N+]([O-])C1=C2N(Cc3ccc(Cl)nc3)CCN2[C@H](c2ccco2)[C@@](C2=NCCN2Cc2ccc(Cl)nc2)([N+](=O)[O-])[C@@H]1c1ccco1 | 100 | 4.43 | 100 | 26.5 | 1.62 | 3.76 | 1.07 | 10.32
O=[N+]([O-])C1=C2N(Cc3ccc(Cl)nc3)CCN2[C@H](c2ccco2)[C@@](C2=NCCN2Cc2ccc(Cl)nc2)([N+](=O)[O-])[C@H]1c1ccco1 | 87 |  | 0 |  |  |  |  | 

From ChEMBL document CHEMBL3045918, “Synthesis, crystal structure, and insecticidal activities of highly congested hexahydroimidazo[1,2-a]pyridine derivatives: effect of conformation on activities” (2010)
